Data: US9802941B2, “Compounds and methods for inhibiting histone demethylases” (Gilead Sciences, Inc., priority 2014, dated 2017)
Like-named read-outs stand apart in the source and are kept apart here.

Columns and labels:
Assay type in all cases: biochemical
[1] = biological target: T1, KDM4C (JMJD2C) (Homo sapiens, UniProt Q9H3R0); assay: Histone lysine demethylase AlphaLISA assay, KDM4C
T1 construct: KDM4C; BRIC, Denmark; 1-349; E. coli; host or cells: E. coli
T1 sequence (Q9H3R0 1-349): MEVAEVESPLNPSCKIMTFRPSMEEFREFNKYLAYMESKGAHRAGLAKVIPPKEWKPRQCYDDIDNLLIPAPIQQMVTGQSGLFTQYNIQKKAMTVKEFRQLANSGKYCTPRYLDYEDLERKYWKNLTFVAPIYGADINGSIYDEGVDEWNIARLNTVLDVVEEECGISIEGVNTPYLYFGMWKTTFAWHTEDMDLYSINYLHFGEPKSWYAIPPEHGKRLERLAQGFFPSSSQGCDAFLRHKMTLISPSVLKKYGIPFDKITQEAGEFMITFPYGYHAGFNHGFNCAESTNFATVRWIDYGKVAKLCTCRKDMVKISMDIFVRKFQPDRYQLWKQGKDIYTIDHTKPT
Experimental: (§1) The compounds of the application, or a pharmaceutically acceptable salt, or solvate, or prodrug thereof, are tested in an in vitro AlphaLISA assay. Enzymes are dissolved in enzyme buffer and incubated before they are added to DMSO solutions of compounds of the application, or a pharmaceutically acceptable salt, or solvate, or prodrug thereof, in enzyme buffer. The reaction mixture is then incubated for an additional period of time before substrate solution is added and then the resulting mixture again incubated. Acceptor beads and suspended Epigenetic Buffer from stock are added and the suspension is again incubated before a suspension of streptavidin donor beads in Epigenetic Buffer is added. After an additional period of incubation, the plates are read.
(§2) The ability of compounds of the application to inhibit the histone lysine demethylase activity in vitro of different enzymes was determined.
(§3) The reaction mixture was incubated for another 10 minutes before 5 μL of substrate solution was added and the resulting mixture was then incubated at room temperature. […] After incubation at room temperature in the dark, the plates were read.
(§4) Enzyme Buffer: 50 mM Hepes (pH 7.4-8.0), 0.003-0.01% Tween-20, 0.1% BSA; 5 μM (NH4)2Fe(SO4)2.

[2] = biological target: T2, KDM2B (FBXL10) (Homo sapiens, UniProt Q8NHM5); assay: Histone lysine demethylase AlphaLISA assay, KDM2B; conditions: AlphaLISA, in vitro; read-out: HDME Inhibition KDM2B
T2 construct: KDM2B; BPS,; 1-650; Bac; purchased BPS Bioscience, US; host or cells: baculovirus system
T2 sequence (Q8NHM5 1-650): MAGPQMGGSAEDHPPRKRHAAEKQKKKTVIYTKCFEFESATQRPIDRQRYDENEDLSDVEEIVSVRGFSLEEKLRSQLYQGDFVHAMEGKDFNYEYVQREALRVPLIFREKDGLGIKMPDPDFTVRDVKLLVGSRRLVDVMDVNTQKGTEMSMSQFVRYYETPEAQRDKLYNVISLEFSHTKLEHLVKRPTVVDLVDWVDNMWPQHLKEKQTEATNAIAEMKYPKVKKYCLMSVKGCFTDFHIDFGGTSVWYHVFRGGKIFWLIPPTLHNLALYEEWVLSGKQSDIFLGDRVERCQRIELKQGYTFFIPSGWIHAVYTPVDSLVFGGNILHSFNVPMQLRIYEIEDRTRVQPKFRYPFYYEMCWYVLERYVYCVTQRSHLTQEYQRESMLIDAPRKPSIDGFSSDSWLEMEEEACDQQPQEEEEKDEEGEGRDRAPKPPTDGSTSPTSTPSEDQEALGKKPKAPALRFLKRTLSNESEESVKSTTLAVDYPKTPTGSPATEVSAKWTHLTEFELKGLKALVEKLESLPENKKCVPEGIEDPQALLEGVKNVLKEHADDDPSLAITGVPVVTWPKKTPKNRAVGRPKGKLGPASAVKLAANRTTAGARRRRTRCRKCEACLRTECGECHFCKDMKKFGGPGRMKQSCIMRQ
Experimental: as §1, §2, §3, §4

[3] = biological target: T3, PHF8 (KDM7) (Homo sapiens, UniProt Q9UPP1); assay: Histone lysine demethylase AlphaLISA assay, PHF8
T3 construct: KDM7 (PHF8); BRIC; 1-1322; Bac
Experimental: as §1, §2, §3, §4

[4] = biological target: T4, KDM5B (PLU-1) (Homo sapiens, UniProt Q9UGL1); assay: Histone lysine demethylase AlphaLISA assay, KDM5B
T4 construct: BRIC; 1-809; E. coli; host or cells: E. coli
T4 sequence (Q9UGL1 1-809): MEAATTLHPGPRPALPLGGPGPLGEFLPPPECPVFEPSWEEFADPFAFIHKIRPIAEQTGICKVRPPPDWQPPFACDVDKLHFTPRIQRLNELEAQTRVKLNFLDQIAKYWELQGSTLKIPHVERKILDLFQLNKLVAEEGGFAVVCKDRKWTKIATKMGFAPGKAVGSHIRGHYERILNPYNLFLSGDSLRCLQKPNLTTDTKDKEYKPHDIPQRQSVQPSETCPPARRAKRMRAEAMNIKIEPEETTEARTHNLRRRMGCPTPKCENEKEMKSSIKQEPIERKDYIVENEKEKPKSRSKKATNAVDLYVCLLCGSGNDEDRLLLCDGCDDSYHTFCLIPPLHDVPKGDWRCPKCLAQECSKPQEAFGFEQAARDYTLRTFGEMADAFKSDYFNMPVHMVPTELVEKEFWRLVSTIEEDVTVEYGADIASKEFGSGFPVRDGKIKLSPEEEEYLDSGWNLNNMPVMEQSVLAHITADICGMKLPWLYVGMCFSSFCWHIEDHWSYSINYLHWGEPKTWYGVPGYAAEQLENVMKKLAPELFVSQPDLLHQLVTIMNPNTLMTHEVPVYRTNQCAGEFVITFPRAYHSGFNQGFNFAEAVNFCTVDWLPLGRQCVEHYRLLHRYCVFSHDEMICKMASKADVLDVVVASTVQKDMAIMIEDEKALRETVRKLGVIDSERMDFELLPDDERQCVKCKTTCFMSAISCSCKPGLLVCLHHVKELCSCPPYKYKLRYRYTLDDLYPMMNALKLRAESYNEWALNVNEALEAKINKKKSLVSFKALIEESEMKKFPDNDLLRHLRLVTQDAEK
Experimental: as §1, §2, §3, §4

[5] = AlphaLISA assay, read-out: HDME Inhibition KDM4C (IC50)
[6] = AlphaLISA, in vitro, read-out: HDME Inhibition KDM4C
[7] = AlphaLISA, in vitro, read-out: HDME Inhibition PHF8
[8] = AlphaLISA assay, read-out: HDME Inhibition KDM5B (IC50)
[9] = AlphaLISA, in vitro, read-out: HDME Inhibition KDM5B
[10] = AlphaLISA assay, read-out: HDME Inhibition PHF8 (IC50)

T3 sequence (Q9UPP1 37-440 limits assumed): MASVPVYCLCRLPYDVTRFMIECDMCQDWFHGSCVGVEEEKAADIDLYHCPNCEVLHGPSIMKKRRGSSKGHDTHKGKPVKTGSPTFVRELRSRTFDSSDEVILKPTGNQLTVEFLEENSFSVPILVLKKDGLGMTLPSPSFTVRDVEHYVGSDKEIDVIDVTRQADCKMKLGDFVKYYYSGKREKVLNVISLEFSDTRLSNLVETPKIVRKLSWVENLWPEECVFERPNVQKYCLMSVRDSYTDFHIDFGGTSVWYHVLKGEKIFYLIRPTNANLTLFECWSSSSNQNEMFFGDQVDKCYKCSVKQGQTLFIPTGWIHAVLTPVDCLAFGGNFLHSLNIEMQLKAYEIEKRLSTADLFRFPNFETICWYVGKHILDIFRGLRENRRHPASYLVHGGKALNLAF

Row | SMILES | IC50 [1, 5] [µM] | IC50 [1, 6] [µM] | IC50 [2] [µM] | IC50 [3, 7] [µM] | IC50 [4, 8] [µM] | IC50 [4, 9] [µM] | IC50 [3, 10] [µM]
1 | Cc1cc(C(=O)O)cc(CNCc2nnc(C)n2Cc2ccc(Cl)c(Cl)c2)n1 [Compound 57, 2-{[({4-[(3,4-dichlorophenyl)methyl]-5-methyl-4H-1,2,4-triazol-3-yl}methyl)amino]methyl}-6-methylpyridine-4-carboxylic acid] | > 10 | > 10 | 1.14 | 1.27 | > 10 | > 10 | –
2 | O=C(O)c1cc(CO)nc(CNCc2nnc(Cc3cccs3)n2Cc2ccc(F)cc2)c1 [Compound 71, 2-{[({4-[(4-Fluorophenyl)methyl]-5-(thiophen-2-ylmethyl)-4H-1,2,4-triazol-3-yl}methyl)amino]methyl}-6-(hydroxymethyl)pyridine-4-carboxylic acid] | > 10 | > 10 | 0.138 | 1.78 | > 10 | > 10 | –
3 | Cc1cc(C(=O)O)cc(CNCc2ncc(CN(C)C)n2Cc2ccc(F)cc2)n1 [Compound 50, 2-{[({5-[(dimethylamino)methyl]-1-[(4-fluorophenyl)methyl]-1H-imidazol-2-yl}methyl)amino]methyl}-6-methylpyridine-4-carboxylic acid] | > 10 | > 10 | 0.692 | 1.04 | > 10 | > 10 | –
4 | Cc1cc(OCc2ccccc2)c(CCNCc2cc(C(=O)O)cc(CO)n2)nn1 [Compound 87, 2-[({2-[4-(benzyloxy)-6-methylpyridazin-3-yl]ethyl}amino)methyl]-6-(hydroxymethyl)pyridine-4-carboxylic acid] | > 10 | > 10 | 1.7 | 2.3 | > 10 | > 10 | –
5 | Cc1cc(C(=O)O)cc(CNCc2nncn2CCCc2ccccc2)n1 [Compound 56] | > 10 | > 10 | 0.482 | 0.883 | > 10 | > 10 | –
6 | COc1ccc(CC(C)C)c(CNCc2cc(C(=O)O)cc(CO)n2)n1 [Compound 84, 2-(hydroxymethyl)-6-[({[6-methoxy-3-(2-methylpropyl)pyridin-2-yl]methyl}amino)methyl]pyridine-4-carboxylic acid] | > 10 | > 10 | 0.251 | 0.673 | – | 6.2 | –
7 | Cc1nnc(CNCc2cc(C(=O)O)cc(CO)n2)n1Cc1ccc(F)cc1 [Compound 72, 2-{[({4-[(4-fluorophenyl)methyl]-5-methyl-4H-1,2,4-triazol-3-yl}methyl)amino]methyl}-6-(hydroxymethyl)pyridine-4-carboxylic acid] | > 10 | > 10 | 0.283 | 0.529 | > 10 | > 10 | –
8 | Cc1cc(C(=O)O)cc(CNCc2nnc(C3CCC3)n2Cc2ccc(F)cc2)n1 [Compound 45, 2-{[({5-cyclobutyl-4-[(4-fluorophenyl)methyl]-4H-1,2,4-triazol-3-yl}methyl)amino]methyl}-6-methylpyridine-4-carboxylic acid] | > 10 | > 10 | 0.501 | 0.491 | > 10 | > 10 | –
9 | Cc1cc(C(=O)O)cc(CNCc2nnc3n2C(c2ccccc2)CNC3)n1 (stereo not drawn) [Compound 113, 2-methyl-6-{[({5-phenyl-5H,6H,7H,8H-[1,2,4]triazolo[4,3-a]pyrazin-3-yl}methyl)amino]methyl}pyridine-4-carboxylic acid] | > 10 | > 10 | 2.83 | > 10 | > 10 | > 10 | > 10
10 | Cc1cc(C(=O)O)cc(CNCc2ncc(C(C)O)n2Cc2ccc(F)cc2)n1 (stereo not drawn) [Compound 63, 2-{[({1-[(4-fluorophenyl)methyl]-5-(1-hydroxyethyl)-1H-imidazol-2-yl}methyl)amino]methyl}-6-methylpyridine-4-carboxylic acid] | > 10 | > 10 | 0.333 | 1.4 | > 10 | > 10 | –
11 | CCc1cnc(CNCc2cc(C(=O)O)cc(C)n2)n1CCc1ccccc1 [Compound 54, 2-[({[5-ethyl-1-(2-phenylethyl)-1H-imidazol-2-yl]methyl}amino)methyl]-6-methylpyridine-4-carboxylic acid] | > 10 | > 10 | 1.14 | 1.19 | > 10 | > 10 | –
12 | O=C(O)c1cc(CO)nc(CNCCc2nncn2Cc2ccc(C(F)(F)F)cc2)c1 [Compound 66, 2-(hydroxymethyl)-6-({[2-(4-{[4-(trifluoromethyl)phenyl]methyl}-4H-1,2,4-triazol-3-yl)ethyl]amino}methyl)pyridine-4-carboxylic acid] | > 10 | > 10 | 5.77 | > 10 | – | 0.943 | > 10
13 | CC#CCC(c1ccc(F)cc1)n1ccnc1CNCc1cc(C(=O)O)cc(C)n1 (stereo not drawn) [Compound 96, 2-{[({1-[1-(4-fluorophenyl)pent-3-yn-1-yl]-1H-imidazol-2-yl}methyl)amino]methyl}-6-methylpyridine-4-carboxylic acid] | > 10 | > 10 | 0.061 | 1.81 | > 10 | > 10 | –
14 | Cc1cc(C(=O)O)cc(CNCc2nnc(CN(C)C)n2Cc2ccc(F)cc2)n1 [Compound 44, 2-{[({5-[(dimethylamino)methyl]-4-[(4-fluorophenyl)methyl]-4H-1,2,4-triazol-3-yl}methyl)amino]methyl}-6-methylpyridine-4-carboxylic acid] | > 10 | > 10 | 2.01 | 2.38 | > 10 | > 10 | –
